# Assays:
# [1] = system: PH domains whose lipid binding properties were investigated in FIG. 2 (GST fusions); experiment: Protein-lipid overlay; settings: data not shown
# Method: (§1) FIG. 2. Phosphoinositide binding properties of the novel PH domains. The ability of the indicated GST fusion proteins to bind a variety of phosphoinositides was analysed using a protein-lipid overlay. Serial dilutions of the indicated phosphoinositides (100 pmol, 50 pmol, 25 pmol, 12.5 pmol, 6.3 pmol, 3.1 pmol and 1.6 pmol) were spotted onto a nitrocellulose membranes which were then incubated with the purified GST fusion proteins. The membranes were washed and the GST-fusion proteins bound to the membrane by virtue of their interaction with lipid were detected using a GST antibody. A representative of at least 3 separate experiments carried out is shown.
# (§2) Protein-Lipid overlay. To assess the phosphoinositide binding properties of each PH domain, a protein-lipid overlay assay was performed using the GST fusion proteins as described previously. Briefly, 1 μl of lipid solution containing 1-100 pmol of phospholipids dissolved in a mixture of choroform:methanol:water (1:2:0.8) was spotted onto Hybond-C extra membrane and allowed to dry at room temperature for 1 h. The membrane was blocked in 3% (by mass) fatty acid-free BSA in TBST (50 mM Tris/HCl pH 7.5, 150 mM NaCl and 0.1% Tween-20 (by vol) for lh. The membrane was then incubated overnight at 4° C. with gentle agitation in the same solution containing 0.2 μg/ml of the indicated GST fusion protein. The membranes were washed 6 times over 30 min in TBST and then incubated for 1 h with 1/1000 dilution of anti-GST monoclonal antibody (Sigma). The membranes were washed as before, then incubated for 1 h with 1/5000 dilution of anti-mouse-HRP conjugate (Pierce). Finally, the membranes were washed 12 times over 1 h in TBST and the GST-fusion protein bound to the membrane by virtue of its interaction with phospholipid was detected by enhanced chemiluminescence.
# [2] = system: 6 of the PH domains identified (GST fusions); experiment: Phosphoinositide binding of PH domains (protein-lipid overlay or surface plasmon resonance); settings: data not shown
# Method: as §2, with “chemiluminescence. […]” for “chemiluminescence.”
# We studied the specificity and affinity of interaction of the PH domains for phosphoinositide lipids using either a “protein-lipid overlay” assay (FIG. 2) or the more quantitative surface plasmon resonance based approach (Table 2). […]
# [3] = molecular target: human FAPP1 PH domain (residues 1 to 99), GST fusion (Homo sapiens, UniProt Q9HB20); experiment: Protein-lipid overlay; format: binding; settings: FIG. 2 and Table 2
# Method: as §1
# (§3) Protein-Lipid overlay. To assess the phosphoinositide binding properties of each PH domain, a protein-lipid overlay assay was performed using the GST fusion proteins as described previously. Briefly, 1 μl of lipid solution containing 1-100 pmol of phospholipids dissolved in a mixture of choroform:methanol:water (1:2:0.8) was spotted onto Hybond-C extra membrane and allowed to dry at room temperature for 1 h. […]
# [4] = system: human phospholipase Cδ1 PH domain (residues 20 to 184), GST fusion; settings: control; cited from earlier work
# [5] = molecular target: human TAPP1 C-terminal PH domain (residues 95 to 404), GST fusion (Homo sapiens, UniProt Q9HB21); experiment: Protein-lipid overlay; format: binding; settings: protein-lipid overlay (FIG. 2)
# Method: as §1
# (§4) FIG. 4. Comparison of the phosphoinositide binding properties of the N-terminal and C-terminal PH domains of TAPP1 and TAPP2. The ability of wild type and mutant forms of full length (FL) and isolated N-terminal (NT) and C-terminal (CT) PH domains of TAPP1 and TAPP2 GST-fusion proteins to interact with phosphoinositides were analysed using a protein-lipid overlay. Serial dilutions of the indicated phosphoinositides (100 pmol, 50 pmol, 25 pmol, 12.5 pmol, 6.3 pmol, 3.1 pmol and 1.6 pmol) were spotted onto a nitrocellulose membrane which was then incubated with the indicated purified GST fusion proteins. The membranes were washed and the GST-fusion proteins bound to the membrane by virtue of their interactions with lipid were detected using a GST antibody. A representative experiment of three is shown. The isolated N-terminal PH domain of human TAPP1 comprises residues 1 to 147, the isolated C-terminal PH domain of human TAPP1 comprises residues 95 to 404, the isolated N-terminal PH domain of mouse TAPP2 comprises residues 1 to 131 and the isolated C-terminal PH of mouse TAPP2 comprises residues 174 to 425.
# as §2, with “Briefly, 1 μl of lipid solution containing 1-100 pmol of phospholipids dissolved in a mixture of choroform:methanol:water (1:2:0.8) was spotted onto Hybond-C extra membrane and allowed to dry at room temperature for 1 h.” left out
# [6] = molecular target: T1, mouse TAPP2 C-terminal PH domain (residues 174 to 425), GST fusion (Mus musculus, UniProt Q9ERS5); experiment: Protein-lipid overlay; format: binding; settings: protein-lipid overlay (FIG. 2)
# T1 construct: made in house; host or cells: human embryonic kidney 293 cells (pEBG-2T)
# Method: as §1, §4
# as §2, with “Briefly, 1 μl of lipid solution containing 1-100 pmol of phospholipids dissolved in a mixture of choroform:methanol:water (1:2:0.8) was spotted onto Hybond-C extra membrane and allowed to dry at room temperature for 1 h.” left out
# [7] = molecular target: human evectin-2 PH domain (residues 1 to 167), GST fusion (Homo sapiens, UniProt Q96CS7); experiment: Protein-lipid overlay; format: binding; settings: FIG. 2
# Method: as §1
# (§5) Cloning of PH domains and preparation of expression constructs. All the human and mouse EST's were obtained from the I.M.A.G.E. Consortium and sequenced. The plant EST (accession number T04439) encoding a full length clone of AtPH1 was obtained from the Arabidopsis Biological Research. Centre (Ohio University). The sequence of each EST was verified and the full length PH domain of each EST was amplified by PCR using the Hi-fidelity PCR system with primers designed to incorporate a Kozak site, an initiating ATG codon followed by a myc epitope tag and a stop codon after the PH domain. […]
# GST-DAPP1 = settings: control; cited from earlier work
# GST-GRP1 = settings: control; cited from earlier work
# [8] = molecular target: T2, human PEPP1 PH domain (Ser-Ala-Ser to Arg-Pro-Gln, accession N31123), GST fusion (Homo sapiens, UniProt Q9H4M7); experiment: Surface plasmon resonance (BIACore), GST fusion binding to phosphoinositide in supported lipid monolayer; settings: supported phosphatidylcholine monolayers, 1:1 binding model, NB, no binding detected, read-out: Apparent Kd
# T2 construct: DNA probe corresponding to the N-terminal 15 to 169 residues of PEPP1; made in house; host or cells: E. coli BL21 (pGEX4T-1)
# Excerpt: as §5
# (§6) Expression of GST-PH domains in E.coli. The pGEX4T-1 constructs encoding the PH domains of FAPP1, AtPH1, PEPP1, LL5α, LL5β, evectin-2 and PH30 were transformed into BL21 E.coli cells and a 0.5 L culture was grown at 37° C. in Luria Broth containing 100 μg/ml ampicillin, until the absorbance at 600 nm was 0.6. […]
# (§7) Kinetic analyses of the interactions between the GST PH domain fusions and the polyphosphoinositides were made using surface plasmon resonance based procedures as described previously, with the following modifications. […] Data were analysed using the bimolecular interaction model and the global fitting feature of the BIAevaluation 3 software for several sensorgrams at different protein concentrations. […]
# [9] = molecular target: T3, human FAPP1 PH domain (residues 1 to 99, accession W32183), GST fusion (Homo sapiens, UniProt Q9HB20); experiment: as above; settings: supported phosphatidylcholine monolayers, 1:1 binding model, NB, no binding detected, read-out: Apparent Kd
# T3 construct: made in house; host or cells: E. coli BL21 (pGEX4T-1)
# Excerpt: as §5, §6, §7
# [10] = molecular target: human FAPP2 (accession AF380162), GST fusion (Homo sapiens, UniProt Q96JA3); experiment: Protein-lipid overlay; format: binding; settings: FIG. 11
# Method: as §1
# Methods used are equivalent to those specified in the legend to FIG. 2.
# as §3
# Sequence of human FAPP1 PH domain (residues 1 to 99), GST fusion (Q9HB20 1-99): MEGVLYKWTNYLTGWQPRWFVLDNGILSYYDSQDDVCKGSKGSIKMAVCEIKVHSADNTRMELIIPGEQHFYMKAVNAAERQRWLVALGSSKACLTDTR
# Sequence of human FAPP2 (accession AF380162), GST fusion (Q96JA3 whole entry, the tested form may be a part): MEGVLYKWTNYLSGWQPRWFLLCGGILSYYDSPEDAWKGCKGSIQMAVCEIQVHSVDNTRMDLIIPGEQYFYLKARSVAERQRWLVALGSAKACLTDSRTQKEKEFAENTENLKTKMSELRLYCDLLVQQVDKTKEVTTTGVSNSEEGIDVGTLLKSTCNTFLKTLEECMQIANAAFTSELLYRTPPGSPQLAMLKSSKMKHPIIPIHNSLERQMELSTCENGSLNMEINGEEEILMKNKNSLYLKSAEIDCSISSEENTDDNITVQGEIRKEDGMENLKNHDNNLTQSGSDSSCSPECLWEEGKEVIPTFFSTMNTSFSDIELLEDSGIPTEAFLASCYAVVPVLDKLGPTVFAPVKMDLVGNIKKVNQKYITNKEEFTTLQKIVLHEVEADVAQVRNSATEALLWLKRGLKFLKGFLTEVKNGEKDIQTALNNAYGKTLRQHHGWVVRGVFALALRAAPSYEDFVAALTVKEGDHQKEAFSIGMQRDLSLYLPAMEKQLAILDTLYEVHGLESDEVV
# T2 sequence (Q9H4M7 15-169): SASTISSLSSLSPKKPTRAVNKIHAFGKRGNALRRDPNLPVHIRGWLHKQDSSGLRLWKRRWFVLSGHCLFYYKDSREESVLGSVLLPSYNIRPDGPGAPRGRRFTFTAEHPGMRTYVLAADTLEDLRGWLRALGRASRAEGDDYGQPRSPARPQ
# T1 sequence (Q9ERS5 174-425): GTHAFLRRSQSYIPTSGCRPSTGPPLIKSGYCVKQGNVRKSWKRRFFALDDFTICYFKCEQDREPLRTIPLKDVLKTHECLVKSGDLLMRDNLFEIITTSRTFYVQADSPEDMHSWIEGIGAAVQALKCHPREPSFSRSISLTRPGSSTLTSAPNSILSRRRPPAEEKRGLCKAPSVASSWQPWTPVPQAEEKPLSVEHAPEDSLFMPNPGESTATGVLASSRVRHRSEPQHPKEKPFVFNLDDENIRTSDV
# T3 sequence (Q9HB20 1-99, one chain of several): as the sequence (Q9HB20 1-99) above
# Sequence of human TAPP1 C-terminal PH domain (residues 95 to 404), GST fusion (Q9HB21 95-404): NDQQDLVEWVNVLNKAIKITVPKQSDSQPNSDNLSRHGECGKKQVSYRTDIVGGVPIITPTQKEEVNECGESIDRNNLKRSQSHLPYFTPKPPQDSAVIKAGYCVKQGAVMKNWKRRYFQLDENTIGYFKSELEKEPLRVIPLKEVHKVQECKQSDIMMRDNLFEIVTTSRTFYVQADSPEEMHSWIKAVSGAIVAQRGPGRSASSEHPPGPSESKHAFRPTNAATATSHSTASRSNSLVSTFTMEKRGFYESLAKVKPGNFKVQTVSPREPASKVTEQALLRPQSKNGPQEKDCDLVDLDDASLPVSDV
# Sequence of human evectin-2 PH domain (residues 1 to 167), GST fusion (Q96CS7 1-167): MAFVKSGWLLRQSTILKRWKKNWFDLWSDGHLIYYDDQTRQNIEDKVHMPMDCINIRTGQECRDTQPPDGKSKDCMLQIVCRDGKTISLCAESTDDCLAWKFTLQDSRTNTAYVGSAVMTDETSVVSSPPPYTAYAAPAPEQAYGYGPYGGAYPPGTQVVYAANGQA
compound,measurement,setting,value
phosphatidylcholine,lipid binding,[1],"None of the PH domains whose lipid binding properties were investigated in FIG. 2, interacted"
phosphatidylethanolamine,lipid binding,[1],"None of the PH domains whose lipid binding properties were investigated in FIG. 2, interacted"
phosphatidylserine,lipid binding,[1],"None of the PH domains whose lipid binding properties were investigated in FIG. 2, interacted"
"CCCCC/C=C\C/C=C\C/C=C\C/C=C\CCCC(=O)O[C@H](COC(=O)CCCCCCCCCCCCCCCCC)COP(=O)(O)O[C@H]1[C@H](O)[C@@H](OP(=O)(O)O)[C@H](OP(=O)(O)O)[C@@H](OP(=O)(O)O)[C@H]1O [sn-1-stearoyl-2-arachidonyl-D-PtdIns(3,4,5)P3]",phosphoinositide binding,[2],did not bind
"CCCCCCCCCCCCCCCC(=O)OC[C@H](COP(=O)(O)O[C@@H]1[C@H](O)[C@H](O)[C@@H](OP(=O)(O)O)[C@H](OP(=O)(O)O)[C@H]1O)OC(=O)CCCCCCCCCCCCCCC [PtdIns(4,5)P2, phosphatidylinositol 4,5-bisphosphate]",phosphoinositide binding,[3],does not interact
same,phosphoinositide binding,[4],binds only
"CCCCCCCCCCCCCCCC(=O)OC[C@H](COP(=O)(O)O[C@H]1[C@H](O)[C@@H](OP(=O)(O)O)[C@H](OP(=O)(O)O)[C@@H](OP(=O)(O)O)[C@H]1O)OC(=O)CCCCCCCCCCCCCCC [PtdIns(3,4,5)P3, phospatidylinositol (3,4,5)-trisphosphate]",phosphoinositide binding,[5],did not bind
same,phosphoinositide binding,[6],did not bind
same,phosphoinositide binding,[7],moderate affinity
same,phosphoinositide binding,[2],did not bind
same,phosphoinositide binding,GST-DAPP1,binds
same,phosphoinositide binding,GST-GRP1,binds only
CCCCCCCCCCCCCCCC(=O)OC[C@H](COP(=O)(O)O[C@@H]1[C@H](O)[C@H](OP(=O)(O)O)[C@@H](O)[C@H](O)[C@H]1O)OC(=O)CCCCCCCCCCCCCCC [PtdIns3P],Kd,[8],325 nM
"CCCCCCCCCCCCCCCC(=O)OC[C@H](COP(=O)(O)O[C@H]1[C@H](O)[C@@H](O)[C@H](OP(=O)(O)O)[C@@H](O)[C@H]1O)OC(=O)CCCCCCCCCCCCCCC [PtdIns4P, phosphoinositol 4-monophosphate]",Kd,[9],20 nM
same,phosphoinositide binding,[3],only binds
same,phosphoinositide binding,[10],binds specifically
same,phosphoinositide binding,[10]; listed as PtdIns-4P,specifically binds
phospatidylinositol,lipid binding,[1],"None of the PH domains whose lipid binding properties were investigated in FIG. 2, interacted"

# Reference: US20040106148A1, “Polypeptides” (priority 2000, published 2004)
